According to patent US11420984B2, “Arginase inhibitors and methods of use thereof” (AstraZeneca AB, priority 2018, dated 2022):

Assays:
Human Arginase 2 = Human Arginase 2 (Homo sapiens (Human), UniProt P78540); test: Human Arginase 2 enzyme inhibition (thioarginine/DTNB absorbance assay); type: biochemical; conditions: recombinant enzyme 5 nM, 0.5 mM thioarginine premix, 60 min
Description: (§1) The thiol group was detected with Ellman's reagent, 5,5′-dithiobis(2-nitrobenzoic acid) (DTNB). DTNB reacts with the thiol to give the mixed disulfide and 2-nitro-5-thiobenzoic acid (TNB) which is quantified by the absorbance of the anion (TNB^2−) at 412 nm.
(§2) The assays were run in clear 384 well plates (Greiner cat no: 781101). […] Two pre-mixes were prepared from reagents thawed immediately before addition to assay plates. Pre-mix one comprised human Arginase 1 or human Arginase 2, at a final concentration of 5 nM and 0.5 mM DTNB in assay buffer, 45 mM HEPES pH7.5, brij 35, 0.045% (w/v) and 100 μM MnCl2. Pre-mix two comprised freshly thawed 0.5 mM thioarginine in assay buffer.
(§3) Assay plates were centrifuged prior to reading absorbance at 412 nm in a Pherastar multi-mode plate reader to collect data at time point 0 (T0). The plates were incubated at room temperature for 60 min prior to reading again to collect data at time point 1 (T1). Data is derived by subtracting the A412 signal measured at T0 (time point 0) from that measured at T1 (time point 1). The data was transformed to % effect using the equation: Compound % effect=100*[(X−min)/(max−min)], where X represents the normalized value for the compound based on the Min (vehicle) and Max (reference compound) inhibition control.

Human Arginase 1 = Human Arginase 1 (Homo sapiens (Human), UniProt P05089); test: Human Arginase 1 enzyme inhibition (thioarginine/DTNB absorbance assay); type: biochemical; conditions: recombinant enzyme 5 nM, 0.5 mM thioarginine premix, 60 min
Description: as §1, §2, §3

[1] = Bioavailability / pharmacokinetic study in male rats (IV and PO); type: in vivo, rat; conditions: plasma, pro-drug itself, observed when dosed as pro-drug, male rat; for clearance / Vd: IV 2 mg/kg; for Vd: read-out: Vdss; for AUC / Cmax / Tmax: PO 5 mg/kg; for bioavailability: PO 5 mg/kg vs IV 2 mg/kg
Description: Example 8 was formulated in 0.9% w/v saline pH 4 (adjusted with 1M HCl) for IV dosing. The formulation was dosed at 2 mg/kg by femoral catheter to two male rats each (170-250 g). Jugular vein catheter serial blood samples were taken at 0.033, 0.083, 0.167, 0.5, 1, 2, 4, 8, and 24 hrs post-dose. For PO dosing, Example 8 was formulated in deionized water pH 4 (adjusted with 1M HCl) and dosed at 5 mg/kg by oral gavage to two male rats each (170-250 g). Serial blood samples were taken by jugular vein catheter at 0.25, 0.5, 1, 1.5, 2, 3, 4, 8, and 24 hrs post dose. Plasma samples were generated from blood using low speed centrifugation. […] The samples and standards were extracted by precipitation with two volumes of acetonitrile followed by centrifugation. […] Where appropriate, measured and not nominal doses were used to calculate bioavalability.

Chain of Human Arginase 2 (P78540 23-354): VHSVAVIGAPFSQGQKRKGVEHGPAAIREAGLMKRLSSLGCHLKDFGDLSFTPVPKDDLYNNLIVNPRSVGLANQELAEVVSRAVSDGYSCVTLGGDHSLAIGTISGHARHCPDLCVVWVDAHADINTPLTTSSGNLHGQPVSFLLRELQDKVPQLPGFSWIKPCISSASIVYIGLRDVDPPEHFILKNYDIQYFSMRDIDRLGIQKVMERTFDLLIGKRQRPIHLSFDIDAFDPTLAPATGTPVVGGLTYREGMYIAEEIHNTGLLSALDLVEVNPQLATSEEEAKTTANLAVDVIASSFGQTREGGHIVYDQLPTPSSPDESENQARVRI
Chain of Human Arginase 1 (P05089 whole entry): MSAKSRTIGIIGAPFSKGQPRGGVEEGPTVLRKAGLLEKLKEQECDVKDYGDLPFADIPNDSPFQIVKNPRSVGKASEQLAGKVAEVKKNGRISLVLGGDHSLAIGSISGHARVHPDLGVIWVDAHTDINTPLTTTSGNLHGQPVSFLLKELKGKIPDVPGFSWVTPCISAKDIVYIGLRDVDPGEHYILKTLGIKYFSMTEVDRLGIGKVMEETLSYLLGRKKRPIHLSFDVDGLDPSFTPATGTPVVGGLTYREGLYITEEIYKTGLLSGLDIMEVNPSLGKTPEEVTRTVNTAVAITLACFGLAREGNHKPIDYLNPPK

Compound	IC50 (Human Arginase 2)	IC50 (Human Arginase 1)	clearance [1]	Vd [1]	AUC [1]	Cmax [1]	Tmax [1]	bioavailability [1]
CC(C)(C)[C@H](N)C(=O)N[C@H]1CN[C@@](CCCCB(O)O)(C(=O)O)C1 [Example 11, (2R,4R)-4-((S)-2-amino-3,3-dimethylbutanamido)-2-(4-boronobutyl)pyrrolidine-2-carboxylic acid]	200 nM	210 nM						
CC[C@H](C)[C@H](N)C(=O)N[C@H]1CN[C@@](CCCCB(O)O)(C(=O)O)C1 [Example 15, (2R,4R)-4-((2S,3S)-2-amino-3-methylpentanamido)-2-(4-boronobutyl)pyrrolidine-2-carboxylic acid]	260 nM	310 nM	104 mL/min/kg	0.46 L/kg				
O=C(N[C@H]1CN[C@@](CCCCB(O)O)(C(=O)O)C1)[C@@H]1CCCN1 [Example 12, (2R,4R)-2-(4-boronobutyl)-4-((S)-pyrrolidine-2-carboxamido)pyrrolidine-2-carboxylic acid]	850 nM	700 nM						
CC(C)C[C@H](N)C(=O)N[C@H]1CN[C@@](CCCCB(O)O)(C(=O)O)C1 [Example 16, (2R,4R)-4-((S)-2-amino-4-methylpentanamido)-2-(4-boronobutyl)pyrrolidine-2-carboxylic acid]	310 nM	310 nM	585 mL/min/kg	7.41 L/kg				
COC[C@H](N)C(=O)N[C@H]1CN[C@@](CCCCB(O)O)(C(=O)O)C1 [Example 18, (2R,4R)-4-((S)-2-amino-3-methoxypropanamido)-2-(4-boronobutyl)pyrrolidine-2-carboxylic acid]	380 nM	320 nM	317 mL/min/kg	0.64 L/kg				
CC(C)[C@](C)(N)C(=O)N[C@H]1CN[C@@](CCCCB(O)O)(C(=O)O)C1 [Example 21, (2R,4R)-4-[[(2S)-2-amino-2,3-dimethyl-butanoyl]amino]-2-(4-boronobutyl)pyrrolidine-2-carboxylic acid]	680 nM	480 nM						
CC(C)(O)[C@H](N)C(=O)N[C@H]1CN[C@@](CCCCB(O)O)(C(=O)O)C1 [Example 20, (2R,4R)-4-[[(2S)-2-amino-3-hydroxy-3-methyl-butanoyl]amino]-2-(4-boronobutyl)pyrrolidine-2-carboxylic acid]	520 nM	340 nM	8.9 mL/min/kg	0.29 L/kg	6.9 µM·h	1800 nM	60 min	25.5%
NC[C@H](N)C(=O)N[C@H]1CN[C@@](CCCCB(O)O)(C(=O)O)C1 [Example 22, (2R,4R)-2-(4-boronobutyl)-4-[[(2S)-2,3-diaminopropanoyl]amino]pyrrolidine-2-carboxylic acid]	1320 nM	930 nM						
CC[C@H](N)C(=O)N[C@H]1CN[C@@](CCCCB(O)O)(C(=O)O)C1 [Example 14, (2R,4R)-4-((S)-2-aminobutanamido)-2-(4-boronobutyl)pyrrolidine-2-carboxylic acid]	310 nM	260 nM						
N[C@@H](CO)C(=O)N[C@H]1CN[C@@](CCCCB(O)O)(C(=O)O)C1 [Example 17, (2R,4R)-4-((S)-2-amino-3-hydroxypropanamido)-2-(4-boronobutyl)pyrrolidine-2-carboxylic acid]	230 nM	200 nM	40.5 mL/min/kg	0.36 L/kg	0.38 µM·h	430 nM	22.8 min	5.8%

More lines, now with the values ahead:

IC50 (Human Arginase 2)	IC50 (Human Arginase 1)	clearance [1]	Vd [1]	AUC [1]	Cmax [1]	Tmax [1]	bioavailability [1]	Compound
150 nM	60 nM							CN(C)[C@H]1CN[C@](CCCCB(O)O)(C(=O)O)C1 [Example 26, (2S,4R)-2-(4-boronobutyl)-4-(dimethylamino)pyrrolidine-2-carboxylic acid]
3320 nM	1430 nM							NCCN[C@H]1CN[C@@](CCCCB(O)O)(C(=O)O)C1 [Example 27, (2R,4R)-4-(2-aminoethylamino)-2-(4-boronobutyl)pyrrolidine-2-carboxylic acid]
10400 nM	4550 nM							O=C(O)[C@@]1(CCCCB(O)O)C[C@@H](O)CN1 [Example 3, (2R,4R)-2-(4-boronobutyl)-4-hydroxypyrrolidine-2-carboxylic acid]
23000 nM	14700 nM							O=C(O)[C@@]1(CCCCB(O)O)CCCN1 [Example 1, (R)-2-(4-boronobutyl)pyrrolidine-2-carboxylic acid]
24600 nM	10800 nM							CN(C)[C@H]1CN[C@@](CCCCB(O)O)(C(=O)O)C1 [Example 25, (2R,4R)-2-(4-boronobutyl)-4-(dimethylamino)pyrrolidine-2-carboxylic acid]
190 nM	90 nM							NCCN[C@H]1CN[C@](CCCCB(O)O)(C(=O)O)C1 [Example 28, (2S,4R)-4-(2-aminoethylamino)-2-(4-boronobutyl)pyrrolidine-2-carboxylic acid]
4770 nM	3770 nM							CC(C)[C@@H](N)C(=O)N[C@H]1CN[C@@](CCCCB(O)O)(C(=O)O)C1 [Example 10, (2R,4R)-4-((R)-2-amino-3-methylbutanamido)-2-(4-boronobutyl)pyrrolidine-2-carboxylic acid]
21400 nM	26600 nM							O=C(O)[C@@]1(CCCCB(O)O)C[C@H](O)CN1 [Example 2, (2R,4S)-2-(4-boronobutyl)-4-hydroxypyrrolidine-2-carboxylic acid]
560 nM	610 nM							C[C@H](N)C(=O)N[C@H]1CN[C@@](CCCCB(O)O)(C(=O)O)C1 [Example 8, (2R,4R)-4-((S)-2-aminopropanamido)-2-(4-boronobutyl)pyrrolidine-2-carboxylic acid]
2120 nM	1140 nM							CN[C@H]1CN[C@@](CCCCB(O)O)(C(=O)O)C1 [Example 23, (2R,4R)-2-(4-boronobutyl)-4-(methylamino)pyrrolidine-2-carboxylic acid]
2420 nM	1350 nM							CC(C)[C@H](N)C(=O)N(C)[C@H]1CN[C@](CCCCB(O)O)(C(=O)O)C1 [Example 30, (2S,4R)-4-[[(2S)-2-amino-3-methyl-butanoyl]-methyl-amino]-2-(4-boronobutyl)pyrrolidine-2-carboxylic acid]
10 nM	< 3 nM							CN[C@H]1CN[C@](CCCCB(O)O)(C(=O)O)C1 [Example 24, (2S,4R)-2-(4-boronobutyl)-4-(methylamino)pyrrolidine-2-carboxylic acid]
630 nM	430 nM	17.9 mL/min/kg	0.2 L/kg	0.62 µM·h	460 nM	30 min	3.8%	NCC(=O)N[C@H]1CN[C@@](CCCCB(O)O)(C(=O)O)C1 [Example 13, (2R,4R)-4-(2-aminoacetamido)-2-(4-boronobutyl)pyrrolidine-2-carboxylic acid]
9280 nM	5270 nM							CC(C)[C@H](N)C(=O)N(C)[C@H]1CN[C@@](CCCCB(O)O)(C(=O)O)C1 [Example 29, (2R,4R)-4-[[(2S)-2-amino-3-methyl-butanoyl]-methyl-amino]-2-(4-boronobutyl)pyrrolidine-2-carboxylic acid]
330 nM	320 nM	33.3 mL/min/kg	0.2 L/kg	0.24 µM·h	600 nM	15 min	3.2%	CC(C)[C@H](N)C(=O)N[C@H]1CN[C@@](CCCCB(O)O)(C(=O)O)C1 [Example 9, (2R,4R)-4-((S)-2-amino-3-methylbutanamido)-2-(4-boronobutyl)pyrrolidine-2-carboxylic acid]
